Experimental findings from patent publication US10538555B2, “Macrocyclic inhibitors of the PD-1/PD-L1 and CD80(B7-1)/PD-L1 protein/protein interactions” (BRISTOL-MYERS SQUIBB COMPANY, priority 2014, dated 2020) are described below.

*1 amine or outer side, *2 acyl side, *3 side chain or, on linkers, in order; H or OH if unused. Where a SMILES comes first, the peptide text is derived from it. Bridges are numbered along the chain shown (N, C = ends). [ ]: non-standard residue; d: D form. ξ: configuration not given here. X5 = O=C(O)CC[C@H](N[*:1])C(=O)C1C[C@H](O)C[C@H]1C(=O)[*:2]; Phe(3,4,5-F3) = N[C@@H](Cc1cc(F)c(F)c(F)c1)C(=O)O; Phe(3,4-F2) = N[C@@H](Cc1ccc(F)c(F)c1)C(=O)O; ξTrp(7-aza) = NC(Cc1c[nH]c2ncccc12)C(=O)O; Phe(4-CN) = N#Cc1ccc(C[C@H](N)C(=O)O)cc1; Phe(4-F) = N[C@@H](Cc1ccc(F)cc1)C(=O)O; d(cisHyp) = O=C(O)[C@H]1C[C@@H](O)CN1; Bta = N[C@@H](Cc1csc2ccccc12)C(=O)O; Hyp = O=C(O)[C@@H]1C[C@@H](O)CN1; NMeF = CN[C@@H](Cc1ccccc1)C(=O)O; X1 = O=C([C@H]1COCCN1[*:1])[*:2]; dHyp = O=C(O)[C@H]1C[C@H](O)CN1; NMeNle = CCCC[C@H](NC)C(=O)O; NMeV = CN[C@H](C(=O)O)C(C)C; Pip = O=C(O)[C@@H]1CCCCN1; dPip = O=C(O)[C@H]1CCCCN1; hSer = N[C@@H](CCO)C(=O)O; NMeA = CN[C@@H](C)C(=O)O; Orn = NCCC[C@H](N)C(=O)O; Dab = NCC[C@H](N)C(=O)O; Dap = NC[C@H](N)C(=O)O; ξC = NC(CS)C(=O)O; Sar = CNCC(=O)O

The target of this experiment is T1, Human PD-L1/PD-1 (Homo sapiens, UniProt Q9NZQ7).
T1 construct: TVMV protease cleavage site (C); made in house; host or cells: HEK293T cells
T1 sequence (Q9NZQ7 with tags, fused parts or gaps): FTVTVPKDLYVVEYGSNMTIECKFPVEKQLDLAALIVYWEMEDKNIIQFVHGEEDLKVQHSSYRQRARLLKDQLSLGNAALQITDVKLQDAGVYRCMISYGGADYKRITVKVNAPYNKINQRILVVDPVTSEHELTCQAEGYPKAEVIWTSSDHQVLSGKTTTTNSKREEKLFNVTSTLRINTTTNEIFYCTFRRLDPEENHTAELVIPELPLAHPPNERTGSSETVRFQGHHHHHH
The experiment can be described thus: HTRF Human PD-L1/PD-1 binding assay (PD-1-Ig/PD-L1-His). The settings on record: PD-L1-His 10 nM, PD-1-Ig 20 nM; class symbol; read-out: HTRF Human PD-L1/PD-1 Binding Assay IC50 Range. The gist of the method:
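HTRF competition using HEK293T-expressed human PD-1(25-167)-Ig at 20 nM and PD-L1(18-239)-His at 10 nM, compound incubated first with PD-L1 for 15 min, then with PD-1 for 15 min. Signal read as 665/620 nm ratio 30 min after adding Eu anti-Ig and APC anti-His antibodies.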
Background: In TR-FRET formats the signal depends on donor and acceptor labels being close together.
On to `CCCC[C@H]1C(=O)N2C[C@H](O)C[C@@H]2C(=O)N[C@@H](CC(=O)O)C(=O)N[C@@H](C(C)C)C(=O)N(C)[C@@H](Cc2ccccc2)C(=O)N[C@@H](CCCN)C(=O)N2C[C@H](O)C[C@@H]2C(=O)N[C@@H](Cc2c[nH]c3ccccc23)C(=O)N[C@@H](Cc2ccc(O)cc2)C(=O)N[C@@H](CCCN)C(=O)N[C@H](C(=O)NCC(N)=O)CSCC(=O)N[C@@H](Cc2ccc(F)c(F)c2)C(=O)N(C)[C@@H](Cc2ccccc2)C(=O)N1C` [Example 9308] ({CH2CO}-[Phe(3,4-F2)][NMeF][NMeNle][d(cisHyp)]DV[NMeF][Orn][d(cisHyp)]WY[Orn]CG-NH2; thioether N-13), for which the IC50 was in the range of 1 to 9.9 nM.
For the compound `CCCC[C@H]1C(=O)N(C)CC(=O)N[C@@H](CC(=O)O)C(=O)N[C@@H](C(C)C)C(=O)N(C)[C@@H](Cc2ccccc2)C(=O)N[C@@H](Cc2ccc(O)cc2)C(=O)N(C)CC(=O)NC(Cc2c[nH]c3ncccc23)C(=O)N[C@@H](Cc2ccc(O)cc2)C(=O)N[C@@H](CC(C)C)C(=O)N[C@H](C(=O)NCC(N)=O)CSCC(=O)N[C@@H](Cc2ccccc2)C(=O)N(C)[C@@H](Cc2ccccc2)C(=O)N1C` (stereo partly drawn) [Example 3239] ({CH2CO}-F[NMeF][NMeNle][Sar]DV[NMeF]Y[Sar][ξTrp(7-aza)]YLCG-NH2; thioether N-13), the IC50 lay in the range of 10 to 99.9 nM.
Take `CCCC[C@H]1C(=O)N(C)[C@@H](CCCC)C(=O)N[C@@H](CCCNC(=N)N)C(=O)NC(C(=O)NCC(N)=O)CSCC(=O)N[C@@H](Cc2ccc(O)cc2)C(=O)N(C)[C@@H](C)C(=O)N[C@@H](CC(N)=O)C(=O)N2CCC[C@H]2C(=O)N[C@@H](CO)C(=O)N[C@@H](CCO)C(=O)N2CCC[C@H]2C(=O)N[C@@H](Cc2c[nH]c3ccccc23)C(=O)N[C@@H](CO)C(=O)N[C@@H](Cc2csc3ccccc23)C(=O)N1C` (stereo partly drawn) [Example 10049] ({CH2CO}-Y[NMeA]NPS[hSer]PWS[Bta][NMeNle][NMeNle]R[ξC]G-NH2; thioether N-14): the IC50 fell in the range of 1 to 9.9 nM.
For the compound `CCCC[C@H]1C(=O)N[C@@H](CC(N)=O)C(=O)N2CCC[C@H]2C(=O)N[C@@H](CO)C(=O)N[C@@H](CCO)C(=O)N2C[C@H](O)C[C@H]2C(=O)N[C@@H](Cc2c[nH]c3ccccc23)C(=O)N[C@@H](CO)C(=O)N[C@@H](Cc2c[nH]c3ccccc23)C(=O)N(C)[C@@H](C)C(=O)N(C)[C@@H](C)C(=O)N[C@@H](CCCN)C(=O)NC(C(=O)NCC(N)=O)CSCC(=O)N[C@@H](Cc2ccc(O)cc2)C(=O)N1C` (stereo partly drawn) [Example 10213] ({CH2CO}-Y[NMeNle]NPS[hSer][Hyp]WSW[NMeA][NMeA][Orn][ξC]G-NH2; thioether N-14), the IC50 was 1000 to 10000 nM.
In the case of `CCCC[C@H]1C(=O)N2CCCC[C@@H]2C(=O)N[C@@H](CC(=O)O)C(=O)N[C@@H](C(C)C)C(=O)N(C)[C@@H](Cc2ccccc2)C(=O)N[C@@H](CCC(=O)O)C(=O)N2CCOC[C@@H]2C(=O)N[C@@H](Cc2c[nH]c3ccccc23)C(=O)N[C@@H](Cc2ccc(O)cc2)C(=O)N[C@@H](CCCN)C(=O)N[C@H](C(=O)NCC(N)=O)CSCC(=O)N[C@@H](Cc2cc(F)c(F)c(F)c2)C(=O)N(C)[C@@H](Cc2ccccc2)C(=O)N1C` [Example 3641] ({CH2CO}-[Phe(3,4,5-F3)][NMeF][NMeNle][dPip]DV[NMeF]E[X1]WY[Orn]CG-NH2; thioether N-13) it was 10 to 99.9 nM; in that of `CCCC[C@H]1C(=O)N(C)[C@@H](CCCC)C(=O)N[C@@H](C)C(=O)N[C@H](C(=O)NCC(N)=O)CSCC(=O)N[C@@H](Cc2ccc(O)cc2)C(=O)N2CCOC[C@H]2C(=O)N[C@@H](CC(=O)O)C(=O)N2CCC[C@H]2C(=O)N[C@@H](Cc2c[nH]cn2)C(=O)N[C@@H](CC(C)C)C(=O)N2C[C@H](O)C[C@H]2C(=O)N[C@@H](Cc2c[nH]c3ccccc23)C(=O)N[C@@H](CO)C(=O)N[C@@H](Cc2c[nH]c3ccccc23)C(=O)N1C` [Example 1525], 1 to 9.9 nM; in that of `CCCC[C@H]1C(=O)N(C)[C@@H](CCCC)C(=O)N[C@@H](CCC(=O)O)C(=O)N[C@H](C(=O)NCC(N)=O)CSCC(=O)N[C@@H](Cc2ccc(O)cc2)C(=O)N2CCCC[C@H]2C(=O)N[C@@H](CC(N)=O)C(=O)N2CCC[C@H]2C(=O)N[C@@H](Cc2cnc[nH]2)C(=O)N[C@@H](CCC(=O)O)C(=O)N2C[C@H](O)C[C@H]2C(=O)N[C@@H](Cc2c[nH]c3ccccc23)C(=O)N[C@@H](CO)C(=O)N[C@@H](Cc2c[nH]c3ccccc23)C(=O)N1C` [Example 1252] ({CH2CO}-Y[Pip]NPHE[Hyp]WSW[NMeNle][NMeNle]ECG-NH2; thioether N-14), 1 to 9.9 nM.
Turning to `CCCC[C@H]1C(=O)N2CCC[C@@H]2C(=O)N[C@@H](CO)C(=O)N[C@@H](C)C(=O)N(C)[C@@H](Cc2ccccc2)C(=O)N[C@@H](Cc2ccc(O)cc2)C(=O)N2CCCC[C@@H]2C(=O)N[C@@H](Cc2c[nH]c3ccccc23)C(=O)N[C@@H](Cc2ccc(O)cc2)C(=O)N[C@@H](CC(C)C)C(=O)N[C@H](C(=O)NCC(N)=O)CSCC(=O)N[C@@H](Cc2ccccc2)C(=O)N(C)[C@@H](Cc2ccccc2)C(=O)N1C` [Example 10056] ({CH2CO}-F[NMeF][NMeNle][dP]SA[NMeF]Y[dPip]WYLCG-NH2; thioether N-13), the IC50 was 100 to 990 nM.
Turning to `CCCC[C@H]1C(=O)N(C)[C@@H](CCCC)C(=O)N[C@@H](CCC(=O)O)C(=O)N[C@H](C(=O)NCC(N)=O)CSCC(=O)N[C@@H](Cc2ccc(OC)cc2)C(=O)N(C)[C@@H](C)C(=O)N[C@@H](CC(=O)O)C(=O)N2CCC[C@H]2C(=O)N[C@@H](CN)C(=O)N[C@@H](CCCCN)C(=O)N2C[C@H](O)C[C@H]2C(=O)N[C@@H](Cc2c[nH]c3ccccc23)C(=O)N[C@@H](CCN)C(=O)N[C@@H](Cc2c[nH]c3ccccc23)C(=O)N1C` [Example 7122] ({CH2CO}-Y(Me)[NMeA]DP[Dap]K[Hyp]W[Dab]W[NMeNle][NMeNle]ECG-NH2; thioether N-14), the IC50 lay within 1 to 9.9 nM.
On to `CCCC[C@H]1C(=O)N(C)[C@@H](CCCC)C(=O)N[C@@H](CCCNC(=N)N)C(=O)N[C@H](C(=O)NCC(N)=O)CSCC(=O)N[C@@H](Cc2ccc(C#N)cc2)C(=O)N(C)[C@@H](C)C(=O)N[C@@H](CC(N)=O)C(=O)N2CCC[C@H]2C(=O)N[C@@H](Cc2cnc[nH]2)C(=O)N[C@@H](CCC(=O)O)C(=O)C2C[C@H](O)C[C@H]2C(=O)N[C@@H](Cc2c[nH]c3ccccc23)C(=O)N[C@@H](CCN)C(=O)N[C@@H](Cc2c[nH]c3ccccc23)C(=O)N1C` (stereo partly drawn) [Example 7077] ({CH2CO}-[Phe(4-CN)][NMeA]NPH[X5]W[Dab]W[NMeNle][NMeNle]RCG-NH2; thioether N-13), for which the IC50 was in the range of 1 to 9.9 nM.
With `CCCC[C@H]1C(=O)N2C[C@@H](O)C[C@@H]2C(=O)N[C@@H](CC(=O)O)C(=O)N[C@@H](C)C(=O)N(C)[C@@H](Cc2ccccc2)C(=O)N[C@@H](Cc2ccc(O)cc2)C(=O)N2C[C@@H](O)C[C@@H]2C(=O)N[C@@H](Cc2c[nH]c3ccccc23)C(=O)N[C@@H](Cc2ccc(O)cc2)C(=O)N[C@@H](CC(C)C)C(=O)N[C@H](C(=O)NCC(N)=O)CSCC(=O)N[C@@H](Cc2ccccc2)C(=O)N(C)[C@@H](Cc2ccccc2)C(=O)N1C` [Example 10079] ({CH2CO}-F[NMeF][NMeNle][dHyp]DA[NMeF]Y[dHyp]WYLCG-NH2; thioether N-13), the IC50 lay in the range of 10 to 99.9 nM.
For the compound `CCCC[C@H]1C(=O)N2C[C@H](O)C[C@@H]2C(=O)N[C@@H](CC(=O)O)C(=O)N[C@@H](C(C)C)C(=O)N(C)[C@@H](Cc2ccccc2)C(=O)N[C@@H](CCC(N)=O)C(=O)N2C[C@H](O)C[C@@H]2C(=O)N[C@@H](Cc2c[nH]c3ccccc23)C(=O)N[C@@H](Cc2ccc(O)cc2)C(=O)N[C@@H](CCCN)C(=O)N[C@H](C(=O)NCC(N)=O)CSCC(=O)N[C@@H](Cc2ccc(F)c(F)c2)C(=O)N(C)[C@@H](Cc2ccccc2)C(=O)N1C` [Example 9302] ({CH2CO}-[Phe(3,4-F2)][NMeF][NMeNle][d(cisHyp)]DV[NMeF]Q[d(cisHyp)]WY[Orn]CG-NH2; thioether N-13), the IC50 was in the range of 1 to 9.9 nM.
As for `CCCC[C@H]1C(=O)N[C@@H](CC(N)=O)C(=O)N2CCC[C@H]2CN[C@@H](CO)C(=O)N[C@@H](CCO)C(=O)N2CCC[C@H]2C(=O)N[C@@H](Cc2c[nH]c3ccccc23)C(=O)N[C@@H](CCN)C(=O)N[C@@H](Cc2c[nH]c3ccccc23)C(=O)N(C)[C@@H](C)C(=O)N(C)[C@@H](C)C(=O)N[C@@H](CCCNC(=N)N)C(=O)NC(C(=O)NCC(N)=O)CSCC(=O)N[C@@H](Cc2ccc(O)cc2)C(=O)N1C` (stereo partly drawn) [Example 10197], the IC50 fell in the range of 1000 to 10000 nM.
`CCCC[C@H]1C(=O)N(C)[C@@H](CCCC)C(=O)N[C@@H](CCC(=O)O)C(=O)N[C@H](C(=O)NCC(N)=O)CSCC(=O)N[C@@H](Cc2ccc(O)cc2)C(=O)N(C)[C@@H](C)C(=O)N[C@@H](CC(=O)O)C(=O)N2CCC[C@H]2C(=O)N[C@@H](Cc2c[nH]cn2)C(=O)N[C@@H](CCC(N)=O)C(=O)N2C[C@H](O)C[C@H]2C(=O)N[C@@H](Cc2c[nH]c3ccccc23)C(=O)N[C@@H](CCC(=O)O)C(=O)N[C@@H](Cc2c[nH]c3ccccc23)C(=O)N1C` [Example 5158] ({CH2CO}-Y[NMeA]DPHQ[Hyp]WEW[NMeNle][NMeNle]ECG-NH2; thioether N-14): the IC50 lay in the range of 10 to 99.9 nM.
On to `CCCC[C@H]1C(=O)N2CCC[C@@H]2C(=O)N[C@@H](CC(=O)O)C(=O)N[C@@H](C(C)C)C(=O)N(C)[C@@H](C(C)C)C(=O)N[C@@H](Cc2ccc(O)cc2)C(=O)N2CCC[C@@H]2C(=O)N[C@@H](Cc2c[nH]c3ccccc23)C(=O)N[C@@H](Cc2ccc(O)cc2)C(=O)N[C@@H](CC(C)C)C(=O)N[C@H](C(=O)NCC(N)=O)CSCC(=O)N[C@@H](Cc2ccc(F)cc2)C(=O)N(C)[C@@H](Cc2ccccc2)C(=O)N1C` [Example 9241] ({CH2CO}-[Phe(4-F)][NMeF][NMeNle][dP]DV[NMeV]Y[dP]WYLCG-NH2; thioether N-13), for which the IC50 fell in the range of 1000 to 10000 nM.
